Data reported in US20190060340A1, “NOVEL AMINOGLYCOSIDES AND USES THEREOF IN THE TREATMENT OF GENETIC DISORDERS” (Technion Research & Development Foundation Limited, priority 2007, published 2019).
≈ marks a conversion by molar mass, not a printed value. Where “and” joins values, the source holds several entries; their conditions need not be identical. Equal values may be shown once. Read-outs that look alike come from different tables or passages of the source.

Assays:
[1] = Cell toxicity assay (XTT cell proliferation); assay type: cell-based
Method: (§1) After 1 day the medium was changed to medium without streptomycin and different concentrations of the tested compounds were added. After 48 hours a cell proliferation assay (XTT based colorimetric assay, Biological Industries) was performed, using the 5 hours incubation protocol, according to the manufacturer's instructions. Optical density (OD) was read using an Elisa plate reader. Cell viability was calculated as the ratio between the number of living cells in cultures grown in the presence of the tested compounds, versus the corresponding cell cultures which were grown without the tested compounds.

[2] = test system: UGA C stop codon (p2LUC plasmid) in COS-7 cells; assay: Ex vivo suppression, p2LUC dual luciferase reporter plasmid in COS-7 cells; assay type: cell-based, monkey; conditions: 24 hours incubation
Method: Recent studies on enhanced production of functional proteins from nonsense codon-containing genes by promoter-activating agents support this presumption. To test this possibility, Compound 3 along with paromomycin and gentamicin, were evaluated for the UGA C stop codon read-through activity in cultured cells using a dual luciferase reporter system.
Suppression of nonsense mutations by Compounds 1-9 was tested ex vivo using a dual luciferase reporter plasmid. The p2LUC plasmid harboring the UGAC mutation was transfected to COS-7 cells with Lipofectamine 2000 (Invitrogen) and addition of tested compounds was performed after 15 hours. Luciferase activity was determined after 24 hours of incubation, using the Dual Luciferase Reporter Assay System (Promega) and stop codon readthrough was calculated as described previously.

[3] = test system: R245X nonsense mutation (a premature UGA A stop codon) of the PCDH15 gene; assay: In vitro suppression, pDB reporter plasmid in reticulocyte lysate; assay type: biochemical, human; conditions: for Concentration (μM) at which maximal suppression was observed, R245X / suppression level (%), maximum in vitro, R245X: Table 20; for suppression level (%), maximum in vitro, R245X: at concentration of maximal suppression; for difference in suppression of R3X versus R245X: maximal suppression levels
Method: Compound 37 was tested for its ability to suppress a nonsense mutation in-vitro, using a reporter construct carrying either R3X nonsense mutation (a premature UGA C stop codon) or R245X nonsense mutation (a premature UGA A stop codon) of the PCDH15 gene, using gentamicin, paromomycin and Compound 3 as standards and following the experimental procedures presented hereinabove.
For the rat-PGM-β-Gal in vitro readthrough system, the pDB series of reporter plasmids harbor the following elements under SP6 promoter control: an open reading frame (ORF) derived from the 5′ end of the rat PGM gene, which encodes a 25-kDa polypeptide; another small ORF, encoding the 10-kDa alpha complementation region of β-galactosidase, and terminated by tandem, in-frame stop codons (UAA UAG); located between the two ORFs is a DNA fragment derived from PCDH15 cDNA, including the tested stop mutation or the corresponding wild-type codon, and six upstream and downstream flanking codons (except for p.R3X constructs, in which there are only two upstream PCDH15-flanking codons). The fragments were created by annealing the following couples of complementary oligonucleotides:
The fragments were inserted into the BamHI and HindIII restriction sites of the pDB read-through construct. Reporter plasmids harboring each of the four nonsense mutations and the corresponding wt alleles were in vitro transcribed and translated using the TNT SP6 Coupled Reticulocyte lysate System (Promega) in the presence of [^35S]-methionine and increasing concentrations of aminoglycosides as described previously. […] The degree of suppression was calculated as the relative proportion of the 35-kDa product out of total reaction products (35-kDa and 25-kDa polypeptides). The results are averages of at least three independent experiments.

[4] = test system: original p2Luc plasmid containing a TGA C nonsense mutation; assay: Dual luciferase in vitro transcription/translation assay; assay type: biochemical; conditions: for Conc. (μM) at which maximum suppression level was achieved: dual luciferase in vitro system, all constructs of Table 21; for Maximum in vitro suppression (%) UGAC: p2luc
Description: (§2) DNA fragments derived from the subsequent genes, including the tested stop mutation or the corresponding wild-type codon, and four upstream and downstream flanking codons (except for p.R3X constructs, in which there are only two upstream PCDH15-flanking codons) were cloned into p2Luc plasmid between renilla and firefly luciferase genes as described previously. The formed plasmids, as well as the original p2Luc plasmid containing a TGA C nonsense mutation, were transcribed and translated in vitro and the stop codon suppression efficiency was calculated as described previously.
(§3) For the dual luciferase in vitro transcription/translation assay, DNA fragments derived from PCDH15, CFTR, Dystrophin and IDUA cDNAs, including the tested stop mutation or the corresponding wild-type codon, and four upstream and downstream flanking codons (except for p.R3X constructs, in which there are only two upstream PCDH15-flanking codons) were created by annealing the couples of complementary oligonucleotides presented above.
(§4) Fragments were inserted into the SalI and SacI restriction sites of the p2Luc plasmid between renilla and firefly luciferase genes. The afforded plasmids, as well as the original p2Luc plasmid containing a TGA C nonsense mutation, were transcribed and translated using the TNT Reticulocyte Lysate Quick Coupled Transcription/Translation System (Promega™). Each transcription/translation reaction (10 μl, total volume) contained 8 μl TNT T7 Quick Master Mix, 0.2 μl methionine (1 mM), 0.8 μl DNA template (2 μg/μl), 1 μl of either water (blank) or 1 μl solution of increasing concentrations of the tested aminoglycosides in water. Luciferase activity was determined following 90 minutes incubation at 30° C. using the Dual Luciferase Reporter Assay System (Promega™). The total luminescence produced by each one of the proteins was measured separately using the FLx800 multidetection plate reader (Bio-Tek) and the stop codon suppression efficiency was calculated as described previously. The results are averages of at least three independent experiments.

[5] = test system: Q70X (IDUA, Hurler Syndrome); assay: as above; assay type: biochemical, human
Description: as §2, §3, §4

[6] = test system: R245X (PCDH15, Usher Syndrome); assay: as above; assay type: biochemical, human
Description: as §2, §3, §4

[7] = test system: R3381X (Dystrophin, Duchenne Muscular Dystrophy); assay: as above; assay type: biochemical, human
Description: as §2, §3, §4

[8] = test system: W1282X (CFTR, Cystic Fibrosis); assay: as above; assay type: biochemical, human
Description: as §2, §3, §4

[9] = test system: W402X (IDUA, Hurler Syndrome); assay: as above; assay type: biochemical, human
Description: as §2, §3, §4

COS-7 (monkey kidney) = assay: Cell toxicity assay (XTT cell proliferation); assay type: cell-based; conditions: 48 hours
Method: as §1

[10] = test system: HEK-293 (human embryonic kidney); assay: Cell toxicity assay (XTT cell proliferation); assay type: cell-based; conditions: 48 hours
Method: as §1

MDCK (canine kidney) = assay: Cell toxicity assay (XTT cell proliferation); assay type: cell-based; conditions: 48 hours
Method: as §1

## NC[C@H]1O[C@@H](O[C@@H]2[C@@H](O)[C@H](N)C[C@H](N)[C@H]2O[C@H]2O[C@H](CO)[C@@H](O)[C@H](O)[C@H]2N)[C@H](O)[C@@H]1O [Compound 3]
[1]; dog, MDCK cells, 48 hours, read-out: LC50 MDCK
  CC50 at 48 h: 7530 ± 1210 µg/mL (≈ 16.6 mM)
[1]; human, HEK-293 cells, 48 hours, read-out: LC50 HEK293
  CC50 at 48 h: 4820 ± 920 µg/mL (≈ 10.6 mM)
[1]; monkey, COS-7 cells, 48 hours, read-out: LC50 COS-7
  CC50 at 48 h: 7030 ± 1850 µg/mL (≈ 15.5 mM)
[2]
  ex-vivo suppression of nonsense mutation (read-through activity), FIG. 4: superior to that of paromomycin and gentamicin at all the tested concentrations
[3]
  Concentration (μM) at which maximal suppression was observed, R245X: 178 µM
  suppression level (%), maximum in vitro, R245X: 6.0 ± 0.3%
  difference in suppression of R3X versus R245X: 3.5 fold
[4]
  Conc. (μM) at which maximum suppression level was achieved: 107 µM
  Maximum in vitro suppression (%) UGAC: 4.8 ± 0.8%
[5]
  Maximum in vitro suppression (%) Q70X: 2.0 ± 0.4%
[6]
  Maximum in vitro suppression (%) R245X: 0.98 ± 0.30%
[7]
  Maximum in vitro suppression (%) R3381X: 1.8 ± 0.2%
[8]
  Maximum in vitro suppression (%) W1282X: 1.6 ± 0.4%
[9]
  Maximum in vitro suppression (%) W402X: 3.2 ± 0.4%

## NCC[C@H](O)C(=O)N[C@@H]1CC(N)[C@@H](O[C@H]2OC(CO)[C@@H](O)C(O)C2N)C(O[C@@H]2O[C@H](CN)C(O)C2O)C1O (stereo partly drawn) [Compound 37]
[3]
  Concentration (μM) at which maximal suppression was observed, R245X: 153 µM
  suppression level (%), maximum in vitro, R245X: 40.5% and 40.5 ± 7.5%
  difference in suppression of R3X versus R245X: 1.8 fold
[3]; maximal suppression level
  fold better suppression of R245X than Compound 3: 6.5 fold
  fold better suppression of R245X than gentamicin: 3.6 fold
  fold better suppression of R245X than paromomycin: 4.5 fold
[4]
  Conc. (μM) at which maximum suppression level was achieved: 46 µM
  Maximum in vitro suppression (%) UGAC: 18.4 ± 1.6%
[5]
  Maximum in vitro suppression (%) Q70X: 10.6 ± 1.1%
[6]
  Maximum in vitro suppression (%) R245X: 4.9 ± 0.5%
[7]
  Maximum in vitro suppression (%) R3381X: 7.8 ± 0.8%
[8]
  Maximum in vitro suppression (%) W1282X: 3.3 ± 0.4%
[9]
  Maximum in vitro suppression (%) W402X: 21.9 ± 4.4%

## NC[C@@H]1O[C@H](O[C@H]2[C@@H](O)[C@H](O[C@@H]3[C@@H](O)[C@H](N)C[C@H](N)[C@H]3O[C@H]3O[C@H](CO)[C@@H](O)[C@H](O)[C@H]3N)O[C@@H]2CO)[C@H](N)[C@@H](O)[C@@H]1O [paromomycin, reference compound]
[1]; dog
  CC50 at 48 h: 1000 ± 60 µg/mL (≈ 1.62 mM)
[1]; human
  CC50 at 48 h: 770 ± 140 µg/mL (≈ 1.25 mM)
[1]; monkey
  CC50 at 48 h: 900 ± 100 µg/mL (≈ 1.46 mM)
[3]
  Concentration (μM) at which maximal suppression was observed, R245X: 42 µM
  suppression level (%), maximum in vitro, R245X: 9 ± 3%
  difference in suppression of R3X versus R245X: 5.4 fold
[4]
  Conc. (μM) at which maximum suppression level was achieved: 42 µM
  Maximum in vitro suppression (%) UGAC: 7.8 ± 2.2%
[5]
  Maximum in vitro suppression (%) Q70X: 2.2 ± 0.5%
[6]
  Maximum in vitro suppression (%) R245X: 0.71 ± 0.32%
[7]
  Maximum in vitro suppression (%) R3381X: 2.4 ± 0.3%
[8]
  Maximum in vitro suppression (%) W1282X: 1.2 ± 0.2%
[9]
  Maximum in vitro suppression (%) W402X: 3.3 ± 0.1%

## gentamicin [reference compound]
COS-7 (monkey kidney)
  LC50 COS-7: 490 ± 60 µg/mL
[10]
  LC50 HEK293: 700 ± 80 µg/mL
MDCK (canine kidney)
  LC50 MDCK: 510 ± 70 µg/mL
[2]
  ex-vivo suppression of nonsense mutation (read-through activity), FIG. 4: less efficient than either paromomycin or Compound 3
[3]
  Concentration (μM) at which maximal suppression was observed, R245X: 61 µM
  suppression level (%), maximum in vitro, R245X: 11 ± 1.5%
  difference in suppression of R3X versus R245X: 4.5 fold
[4]
  Conc. (μM) at which maximum suppression level was achieved: 46 µM
  Maximum in vitro suppression (%) UGAC: 17.7 ± 2.9%
[5]
  Maximum in vitro suppression (%) Q70X: 1.5 ± 0.4%
[6]
  Maximum in vitro suppression (%) R245X: 0.90 ± 0.28%
[7]
  Maximum in vitro suppression (%) R3381X: 3.5 ± 0.7%
[8]
  Maximum in vitro suppression (%) W1282X: 1.4 ± 0.5%
[9]
  Maximum in vitro suppression (%) W402X: 7.2 ± 0.5%
